Source: article PMC8400955 (Pharmaceuticals, 2021)
“And” between values parts separate entries of the source, which are not always exact repeats. Equal entries are not always repeated.

Experiments:
CYP3A5 = CYP3A5 (Homo sapiens, UniProt P20815); experiment: CYP phenotyping, recombinant CYP3A5
Experimental: Bactosomes prepared from E. coli that heterologously expressed individual human CYP isoforms together with human CYP reductase were obtained from CYPEX LTD (Scotland, UK), and stored at −80 °C prior to use. […] Timepoints were taken at 0, 5, 10, 15, 20, and 30 min. Substrate disappearance was used to calculate intrinsic clearance (Clint) and half-life (t1/2). All incubations were performed in triplicate. […] The chemical inhibitors for CYP1A2, 2A6, 2B6, 2C8, 2C9, 2C19, 2D6, and 3A4 were furafylline, tranylcypromine, ticlopidine, montelukast, sulfaphenazole, N-3-benzylnirvanol, quinidine, and ketoconazole, respectively. Timepoints were collected at 0, 15, 30, 45, and 60 min, and the remaining percentage of the parent drug at each timepoint was calculated (the calculation details are available in the Supplementary Materials). All incubations were performed in triplicate.
The slope, k, was determined by linear regression of the natural logarithm of percent parent disappearance vs. incubation time curve. Peak areas for test article and internal standard were determined from extracted ion chromatograms. The peak area ratio was used to calculated for the results.
The half-life value (t1/2 rCYPi) was determined from the slope value:
Conversion of the t1/2 rCYPi (in min) into the intrinsic clearance (Clint rCYPi in μL/min/pmol) was done using the following equation:
1.3.2 For inhibition ratio (%) (Liver microsomes with and without inhibitors) The slope value, k, was determined by linear regression of the natural logarithm of the remaining percentage of the parent drug vs. incubation time curve. If the turnover was not significant (T-test with p<0.05 was not obtained) and the percentage remaining at last time point was ≥ 80%, the k value was

[1] = Plasma protein binding by equilibrium dialysis, mouse; type: in vitro ADME; details: plasma (EDTA-K2 as anticoagulant)
Experimental: (§1) The in vitro binding of ZB716 to plasma proteins was determined by equilibrium dialysis technique in mouse, rat, dog, monkey, and human plasma (EDTA-K2 as anticoagulant), over the concentration range of 0.1–10 μM. The free concentration of ZB716 was below the lower limit of quantitation at 0.1, 1, and 10 μM in human, monkey, dog, rat, and mouse plasma.
(§2) The equilibrium dialysis method was used to investigate the in vitro binding of ZB716 to human, monkey, dog, rat, and mouse plasma proteins. The dialysis phosphate buffer solution (100 mM, pH 7.4) and plasma samples containing 0.1, 1, and 10 μM of ZB716 were added to separate chambers of dialysis wells of the HTDialysis device. The dialysis plate was placed in an incubator at 37 °C with 5% CO2 at approximately 100 rpm for 6 h. After incubation, the seal was removed, and 50 μL each of post-dialysis samples was pipetted from both the buffer and plasma chambers into fresh 96-well plates. The samples were analyzed via UPLC–MS/MS. The bound fraction, unbound fraction, recovery (%), and remaining (%) were calculated by Equations (2)–(5):%Unbound = (Conc.buffer chamber/Conc.plasma chamber) × 100(2) %Bound = 100% − %Unbound (3) %Recovery = (Conc.buffer chamber + Conc.plasma chamber)/Conc.Total sample × 100 (4) %Remaining = Conc.6h/Conc.0h × 100 (5)

mouse plasma proteins = experiment: as above; type: in vitro ADME; details: for Remaining: 6 h
Experimental: as §1, §2

[2] = 4-week repeat-dose toxicity/TK study in dogs; type: in vivo, beagle dogs; details: for AUC(0-t) / Cmax / Tmax: beagle, dog, plasma, po
Experimental: The TK of ZB716 was investigated in a 4-week repeat-dose toxicity study in dogs. Groups of dogs (n = 3/sex/group) were orally administered ZB716 (5% EtOH, 15% PG, 5% Solutol, and 75% of 40% HP-β-CD in DI water) at dose levels of 25, 100, and 200 mg/kg/day for 4 weeks. The plasma concentration of ZB716 was measured at various times up through to 24 h post-dose on days 1 and 28. […] The lower exposure in females given 200 mg/kg/day on day 1 was likely due to emesis noted in all females in this group.
Four-to-six-week-old Sprague Dawley rats (Crl: CD (SD)) (SPF/VAF) were purchased from Beijing Vital River Laboratory Animal Technology, Co. Ltd.). Six-month-old beagle dogs were purchased from Beijing Marshall Biotechnology Co. Ltd. Animals were quarantined/acclimated for 2–6 weeks prior to dose initiation. Both Sprague Dawley rats and beagle dogs were given oral administration of ZB716 (20% PG, 5% Solutol, and 75% of 40% HP-β-CD in water) at different dose levels. After treatment with the test articles, whole blood was collected from each study animal by puncture of the tail vein (0.4 mL of whole blood from rats) and/or the peripheral vein (0.6 mL of whole blood from dogs) into tubes containing K2EDTA at each timepoint: pre-dose, and 0.5, 1, 2, 4, 8, and 24 h post-dose. The plasma samples were divided into 2 aliquots (approximately equal in volume) and stored frozen at −75 ± 15 °C within 2 h of the collection until analysis at Pharmaron, China.
The stock solution of ZB716 (5.0 mg/mL) and ZB716-d6 (1 mg/mL) in ACN:DI Water = 1:1 was prepared and stored at −20 ± 5 °C. The desired serial concentrations of working reference analyte solutions were achieved by diluting a stock analyte solution with 50% acetonitrile (0.1% formic acid) in water solution. The bioanalytical LC–MS/MS method was validated for quantitative determination of ZB716 in Sprague Dawley rat plasma and beagle dog plasma, with acceptable selectivity, sensitivity, calibration curve, precision, and accuracy. This method is applicable for the determination of ZB716 in Sprague Dawley rat plasma and beagle dog plasma, with a lower limit of quantification of 20.0 ng/mL, and an upper limit of quantification of 10,000 ng/mL.
Five microliters of diluted supernatant was injected into the LC–MS/MS system (Shimadzu LC30AD HPLC system with a SynergiTM 4 μm Fusion-RP 80 Å (50 × 2 mm) column using gradient elution and a Triple Quad 5500 mass spectrometer) for quantitative analysis. The mobile phases used were 0.1% formic acid in deionized water and 0.1% formic acid in acetonitrile. The pharmacokinetic parameters T1/2 (the biological half-life), Cmax (maximal concentration), Tmax (time at which Cmax is observed), and AUC (area under the plasma concentration–time curve) were calculated from the plasma concentration versus time data using WinNonlin (Phoenix^TM, version 8.1, Mountain View, CA, USA). All PK studies were conducted by Pharmaron in Beijing, China.

[3] = female, 25 mg/kg/day, day 1, PO 25 mg/kg/day, F
[4] = female, 25 mg/kg/day, day 28, PO 25 mg/kg/day, F
[5] = female, 100 mg/kg/day, day 1, PO 100 mg/kg/day, F
[6] = female, 100 mg/kg/day, day 28, PO 100 mg/kg/day, F
[7] = female, 200 mg/kg/day, day 1, PO 200 mg/kg/day, F
[8] = female, 200 mg/kg/day, day 28, PO 200 mg/kg/day, F
[9] = male, 25 mg/kg/day, day 1, PO 25 mg/kg/day, M
[10] = male, 25 mg/kg/day, day 28, PO 25 mg/kg/day, M
[11] = male, 100 mg/kg/day, day 1, PO 100 mg/kg/day, M
[12] = male, 100 mg/kg/day, day 28, PO 100 mg/kg/day, M
[13] = male, 200 mg/kg/day, day 1, PO 200 mg/kg/day, M
[14] = male, 200 mg/kg/day, day 28, PO 200 mg/kg/day, M

CYP3A5, sequence (P20815 whole entry): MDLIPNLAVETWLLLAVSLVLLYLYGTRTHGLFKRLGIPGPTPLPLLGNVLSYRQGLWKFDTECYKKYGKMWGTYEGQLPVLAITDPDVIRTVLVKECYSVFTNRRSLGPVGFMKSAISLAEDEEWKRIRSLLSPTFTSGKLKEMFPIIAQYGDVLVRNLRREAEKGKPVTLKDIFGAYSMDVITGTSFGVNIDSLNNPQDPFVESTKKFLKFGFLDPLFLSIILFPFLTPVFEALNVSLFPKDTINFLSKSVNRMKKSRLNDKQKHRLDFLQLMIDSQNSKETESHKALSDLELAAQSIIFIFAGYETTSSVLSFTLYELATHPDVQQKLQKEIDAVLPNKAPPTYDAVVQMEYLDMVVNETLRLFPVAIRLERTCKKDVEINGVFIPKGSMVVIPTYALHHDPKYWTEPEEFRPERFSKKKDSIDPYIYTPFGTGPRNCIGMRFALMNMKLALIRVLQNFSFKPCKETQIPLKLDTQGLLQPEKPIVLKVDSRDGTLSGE

C[C@]12CC[C@@H]3c4ccc(B(O)O)cc4C[C@@H](CCCCCCCCC[S+]([O-])CCCC(F)(F)C(F)(F)F)[C@H]3[C@@H]1CC[C@@H]2O (stereo partly drawn) [ZB716, fulvestrant-3-boronic acid]
half-life at 2 µM (CYP3A5; human): 2.06 ± 0.33 min
Clint (CYP3A5; recombinant CYP3A5, 2 µM ZB716): 6.86 µL/min/pmol CYP and 6.86 ± 1.12 µL/min/pmol CYP
recovery at 6 h, 0.1 μM ([1]; pH 7.4, 0.1 μM): < 96%
recovery at 6 h, 1 μM ([1]; pH 7.4, 1 μM): < 88.8%
recovery at 6 h, 10 μM ([1]; pH 7.4, 10 μM): < 95%
Bound (mouse plasma proteins; 0.1 μM): >97.4%
Unbound (mouse plasma proteins; 0.1 μM): <2.63%
Remaining (mouse plasma proteins; 0.1 μM): 98.5 ± 14.5%
Bound (mouse plasma proteins; 1 μM): >99.7%
Unbound (mouse plasma proteins; 1 μM): <0.266%
Remaining (mouse plasma proteins; 1 μM): 92.2 ± 5.7%
Bound (mouse plasma proteins; 10 μM): >99.97%
Unbound (mouse plasma proteins; 10 μM): <0.0272%
Remaining (mouse plasma proteins; 10 μM): 97.4 ± 10.7%
AUC(0-t) [2, 3]: 3880 ng·h/mL
Cmax [2, 3]: 772 ng/mL
Tmax [2, 3]: 1 h
AUC(0-t) [2, 4]: 8000 ng·h/mL
Cmax [2, 4]: 1590 ng/mL
Tmax [2, 4]: 1 h
AUC(0-t) [2, 5]: 4490 ng·h/mL
Cmax [2, 5]: 997 ng/mL
Tmax [2, 5]: 1 h
AUC(0-t) [2, 6]: 9650 ng·h/mL
Cmax [2, 6]: 1870 ng/mL
Tmax [2, 6]: 2 h
AUC(0-t) [2, 7]: 2720 ng·h/mL
Cmax [2, 7]: 583 ng/mL
Tmax [2, 7]: 2 h
AUC(0-t) [2, 8]: 14900 ng·h/mL
Cmax [2, 8]: 1810 ng/mL
Tmax [2, 8]: 2 h
AUC(0-t) [2, 9]: 1980 ng·h/mL
Cmax [2, 9]: 691 ng/mL
Tmax [2, 9]: 0.5 h
AUC(0-t) [2, 10]: 4330 ng·h/mL
Cmax [2, 10]: 1390 ng/mL
Tmax [2, 10]: 1 h
AUC(0-t) [2, 11]: 4570 ng·h/mL
Cmax [2, 11]: 1400 ng/mL
Tmax [2, 11]: 1 h
AUC(0-t) [2, 12]: 12400 ng·h/mL
Cmax [2, 12]: 3340 ng/mL
Tmax [2, 12]: 2 h
AUC(0-t) [2, 13]: 7880 ng·h/mL
Cmax [2, 13]: 1040 ng/mL
Tmax [2, 13]: 2 h
AUC(0-t) [2, 14]: 11000 ng·h/mL
Cmax [2, 14]: 2130 ng/mL
Tmax [2, 14]: 2 h
tolerability ([2]; oral once daily, doses up to 200 mg/kg/day for 28 consecutive days): tolerated
